Assays:
[1] = Feeding trial in rumen-fistulated dairy cows: ZEN and ZEN metabolites in rumen fluid from reticulum, dorsal mat layer and ventral sac; type: in vivo, Holstein Friesian cows; settings: for Detection in rumen fluid: any reticulorumen location
Description: (§1) Ruminal metabolism of ZEN with and without supplementation of ZenA was investigated in four rumen-fistulated Holstein Friesian cows (sex: female; age at start: 5.9 ± 1.0 years; body weight at start: 863 ± 65 kg; physiological stage: non-lactating; general health: good, non-gestating; identification procedure: ear tag 4-digit code). The cows were part of the dairy herd of VetFarm (Teaching and Research Farm) of the University of Veterinary Medicine Vienna in Kremesberg, Austria. All procedures related to these experiments were performed according to Austrian law and following the European Guidelines for the Care and Use of Animals for Research Purpose. The animal experiment was approved by ethics and animal welfare commission of the University of Veterinary Medicine, Vienna and the Austrian Federal Ministry of Education, Science and Research (68.205/0156-WF/V/3b/2017, 30.08.2017).
(§2) In our trial setup, each animal was considered an experimental unit (n = 4). Each animal received the same treatment and served as its own control. First, each animal received ZEN-contaminated concentrate feed. Following a 48-h washout period, each animal received ZEN-contaminated concentrate feed supplemented with ZenA. In brief, for acclimatization, on the day prior to the start of the feeding trial, each animal was manually fed 4 × 500 g of control concentrate (Table 4 and Table 5). Thereafter, animals were manually fed (i) 1 × 500 g concentrate contaminated with ZEN and 3 × 500 g control concentrate on experimental day 1 (ZEN treatment), (ii) 4 × 500 g control concentrate on day 2 (ZEN washout), (iii) 1 × 500 g ZEN-contaminated concentrate supplemented with ZenA and 3 × 500 g control concentrate on day 3 (ZEN+ZenA treatment), and (iv) 4 × 500 g control concentrate on day 4 (ZEN+ZenA washout; Table 6). Animals were treated and assessed in the same random order at each experimental time point.
For production of ZEN-contaminated concentrate feed, lyophilizate of ZEN with maltodextrin as a carrier was prepared. To this end, in three parallel preparations, 50 mg ZEN (Fermentek, Jerusalem, Israel) was dissolved in 1 L RO water (pH 12; adjusted with NaOH) using a magnetic stirrer set to 400 rpm and 37 °C for 20 min. Subsequently, 100 g maltodextrin DE19 (Agrana, Vienna, Austria) was added and dissolved by stirring (400 rpm) at room temperature for 10 min. The solution was lyophilized. Lyophilizate was mixed into concentrate feed at an inclusion rate of 2%. The final concentration of ZEN in feed was aimed to be 10 mg/kg and was verified using HPLC-MS/MS analysis as described below. For production of ZEN-contaminated, ZenA-supplemented concentrate, a zearalenone hydrolase ZenA preparation (ZENzyme®; EC 3.1.1.-; BIOMIN Holding GmbH, Getzersdorf, Austria) was mixed into ZEN-contaminated concentrate to achieve an activity of 128 U/kg feed. Same as in the in vitro trial, 1 U of ZenA was defined as the enzyme activity that hydrolyzes 1 μmol ZEN per minute from 15.71 µM ZEN in Teorell Stenhagen buffer adjusted to pH 7.5 containing 0.1 mg/mL bovine serum albumin at 37 °C.
On days 1 and 3 of the trial (ZEN and ZEN+ZenA treatment, respectively), ruminal digesta samples were taken from reticulum, ventral sac and dorsal mat layer (Figure 3) immediately before concentrate feeding (0 h), as well as 15 min, 1 h, 2 h, 4 h, 7 h and 10 h after concentrate feeding (Table 6). On days 2 and 4 of the trial (washout days), ruminal digesta samples were taken immediately before first concentrate feeding (0 h), as well as 10 h after first concentrate feeding (Table 6). Ruminal digesta samples (10 mL) were taken via a rumen fistula from reticulum and ventral sac (10 cm above the bottom of the rumen) using a pump as described previously. Samples were taken from the dorsal mat layer 20 cm below the gas phase and rumen fluid was obtained by manually squeezing the samples as described previously. Samples were mixed 1:2 with acetonitrile by vortexing. […]

[2] = Feeding trial in rumen-fistulated dairy cows: ZEN and ZEN metabolites in feces; type: in vivo, Holstein Friesian cows; settings: for Percentage of concentration relative to the sum of ZEN and ZEN metabolite concentrations: feces
Description: as §1, §2
On days 1 and 3 of the experiment, feces samples were taken from the rectum immediately before concentrate feeding (0 h), as well as 10 h after concentrate feeding (Table 6) and stored at −20 °C. Aliquots (500 mg) of thoroughly homogenized feces samples were extracted for HPLC-MS/MS analysis according to the method described by Binder and coworkers.
HPLC-MS/MS analysis of ZEN, α-ZEL, β-ZEL, HZEN and DHZEN in rumen fluid and feces was performed as described for the in vitro rumen fermentation experiment (see section “In Vitro Rumen Fermentation Experiment”, subsection “Analysis of ZEN and its Metabolites”), with the following modifications. Chromatographic separation was performed with a flow rate of 0.6 mL/min, a duration of 4 min and an injection volume was 1 µL. The gradient started at 30% B which was held for 0.3 min. Subsequently, the proportion of B was increased to 80% from 0.3 to 2 min, and increased to 100% from 2 to 2.1 min. […] LODs for ZEN, α-ZEL, β-ZEL, HZEN and DHZEN in rumen fluid were 2.83 nmol/L (0.9 µg/L), 2.81 nmol/L (0.9 µg/L), 2.81 nmol/L (0.9 µg/L), 2.68 nmol/L (0.9 µg/L) and 10.27 nmol/L (3 µg/L), respectively. LOQs for ZEN, α-ZEL, β-ZEL, HZEN and DHZEN in rumen fluid were 9.43 nmol/L (3 µg/L), 9.37 nmol/L (3 µg/L), 9.37 nmol/L (3 µg/L), 8.93 nmol/L (3 µg/L) and 30.81 nmol/L (9 µg/L), respectively. LODs for ZEN, α-ZEL, β-ZEL, HZEN and DHZEN in feces were 0.03 nmol/g (8.4 ng/g), 0.03 nmol/g (8.4 ng/g), 0.03 nmol/g (8.4 ng/g), 0.03 nmol/g (8.4 ng/g) and 0.10 nmol/g (28 ng/g), respectively. LOQs for ZEN, α-ZEL, β-ZEL, HZEN and DHZEN in feces were 0.09 nmol/g (28 ng/g), 0.09 nmol/g (28 ng/g), 0.09 nmol/g (28 ng/g), 0.08 nmol/g (28 ng/g) and 0.29 nmol/g (84 ng/g), respectively.

MCF-7 cell = test system: MCF-7 cell; parameters: method as in PMID 12596876, PMID 31434326; settings: cited from earlier work
pigs = test system: pigs; parameters: method as in PMID 31434326; settings: in contrast to ZEN; cited from earlier work
estrogen-sensitive yeast = test system: estrogen-sensitive yeast; parameters: method as in PMID 31434326; settings: cited from earlier work
[3] = for Detection in reactors: reactors incubated with ZEN without ZenA, any time point
[4] = reticulorumen, ZEN treatment, 15 min after feeding, from median of 3 locations
[5] = reticulorumen, ZEN treatment, 1 h
[6] = reticulorumen, ZEN treatment, 4 h
[7] = reticulorumen, ZEN treatment, 7 h
[8] = reticulorumen, ZEN treatment, 10 h
[9] = reticulorumen, ZEN treatment, 24 h
[10] = reticulorumen, ZEN+ZenA treatment, 15 min
[11] = reticulorumen, ZEN+ZenA treatment, 1 h
[12] = reticulorumen, ZEN+ZenA treatment, 4 h
[13] = reticulorumen, ZEN+ZenA treatment, 7 h
[14] = reticulorumen, ZEN+ZenA treatment, 10 h
[15] = ZEN+ZenA treatment, 0 h (48 h after ZEN treatment)

C[C@H](O)CCCC(=O)CCC/C=C/c1cc(O)cc(O)c1 [DHZEN, decarboxylated hydrolyzed zearalenone]
Detection in rumen fluid ([1]; ZEN treatment): not detected
Percentage of concentration relative to the sum of ZEN and ZEN metabolite concentrations [1, 4]: 0.0%
Percentage of concentration relative to the sum of ZEN and ZEN metabolite concentrations [1, 5]: 0.0%
Percentage of concentration relative to the sum of ZEN and ZEN metabolite concentrations [1, 6]: 0.0%
Percentage of concentration relative to the sum of ZEN and ZEN metabolite concentrations [1, 7]: 0.0%
Percentage of concentration relative to the sum of ZEN and ZEN metabolite concentrations [1, 8]: 0.0%
Percentage of concentration relative to the sum of ZEN and ZEN metabolite concentrations [1, 9]: 0.0%
Percentage of concentration relative to the sum of ZEN and ZEN metabolite concentrations [1, 10]: 0.0%
Percentage of concentration relative to the sum of ZEN and ZEN metabolite concentrations [1, 11]: 0.0%
Percentage of concentration relative to the sum of ZEN and ZEN metabolite concentrations [1, 12]: 0.0 (traces) %
Percentage of concentration relative to the sum of ZEN and ZEN metabolite concentrations [1, 13]: 0.0 (traces) %
Percentage of concentration relative to the sum of ZEN and ZEN metabolite concentrations [1, 14]: 0.0 (traces) %
Detection in feces ([2]; ZEN and ZEN+ZenA treatments, any sample): not detected
Percentage of concentration relative to the sum of ZEN and ZEN metabolite concentrations ([2]; ZEN treatment, 10 h): 0.0%
Percentage of concentration relative to the sum of ZEN and ZEN metabolite concentrations [2, 15]: 0.0%
Percentage of concentration relative to the sum of ZEN and ZEN metabolite concentrations ([2]; ZEN+ZenA treatment, 10 h): 0.0%
Estrogenic response (MCF-7 cell): did not elicit an estrogenic response
Effect on reproductive tract morphology or expression of ZEN-responsive microRNAs (pigs): did not affect
Estrogenic response (estrogen-sensitive yeast): did not elicit an estrogenic response
First detected (time after start of incubation) ([3]; reactors incubated with ZEN and ZenA (100 U/kg feed)): 2 h
Detection in reactors [3]: not detected

C[C@H](O)CCCC(=O)CCC/C=C/c1cc(O)cc(O)c1C(=O)O [HZEN, hydrolyzed zearalenone]
Detection in rumen fluid ([1]; ZEN treatment): not detected
Percentage of concentration relative to the sum of ZEN and ZEN metabolite concentrations [1, 4]: 0.0%
Percentage of concentration relative to the sum of ZEN and ZEN metabolite concentrations [1, 5]: 0.0%
Percentage of concentration relative to the sum of ZEN and ZEN metabolite concentrations [1, 6]: 0.0%
Percentage of concentration relative to the sum of ZEN and ZEN metabolite concentrations [1, 7]: 0.0%
Percentage of concentration relative to the sum of ZEN and ZEN metabolite concentrations [1, 8]: 0.0%
Percentage of concentration relative to the sum of ZEN and ZEN metabolite concentrations [1, 9]: 0.0%
Not detected anymore at (time after concentrate feeding) ([1]; reticulorumen, ZEN+ZenA treatment): 24 h
Percentage of concentration relative to the sum of ZEN and ZEN metabolite concentrations [1, 10]: 94.1%
Percentage of concentration relative to the sum of ZEN and ZEN metabolite concentrations [1, 11]: 100.0%
Percentage of concentration relative to the sum of ZEN and ZEN metabolite concentrations [1, 12]: 100.0%
Percentage of concentration relative to the sum of ZEN and ZEN metabolite concentrations [1, 13]: 100.0%
Percentage of concentration relative to the sum of ZEN and ZEN metabolite concentrations [1, 14]: 100.0%
Percentage of concentration relative to the sum of ZEN and ZEN metabolite concentrations ([2]; ZEN treatment, 10 h): 0.0%
Percentage of concentration relative to the sum of ZEN and ZEN metabolite concentrations [2, 15]: 0.0%
Percentage of concentration relative to the sum of ZEN and ZEN metabolite concentrations ([2]; ZEN+ZenA treatment, 10 h): 31.9%
Estrogenic response (MCF-7 cell): did not elicit an estrogenic response
Effect on reproductive tract morphology or expression of ZEN-responsive microRNAs (pigs): did not affect
Estrogenic response (estrogen-sensitive yeast): did not elicit an estrogenic response
Detection in reactors [3]: not detected

— paper PMC7911295, “Metabolism of Zearalenone in the Rumen of Dairy Cows with and without Application of a Zearalenone-Degrading Enzyme” (Toxins, 2021)
